Data as given in the supplement of paper PMC4862054.

How the values were obtained:
Assay in all cases: normalised viability (% of control), CellTiter-Blue; higher = more viable cells (about 100 = DMSO control)
Conditions in all cases: incubation time: 72 h
BT-549 = tested on: BT-549
Summary of the method: (§1)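 Seeded at 20 µl suspension per well onto compound-loaded 384-well plates, breast cancer cell lines were incubated 72 h. CellTiter-Blue fluorescence at 560/590 nm was then read, with each plate normalised to vehicle (100) and a positive kill control (0). Normalised viability is reported at a single listed concentration of the series.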

MDA-MB-453 = tested on: MDA-MB-453
Summary of the method: as §1

CAL-85-1 = tested on: CAL-85-1
Summary of the method: as §1

MFM-223 = tested on: MFM-223
Summary of the method: as §1

DU-4475 = tested on: DU-4475
Summary of the method: as §1

CAL-148 = tested on: CAL-148
Summary of the method: as §1

CS(=O)(=O)c1ccc(C(=O)Nc2ccc(Cl)c(-c3ccccn3)c2)c(Cl)c1 [Vismodegib]
normalised viability (BT-549; 10 nM): 102% | normalised viability (BT-549; 1000 nM): 112% | normalised viability (BT-549; 10000 nM): 79.2% | normalised viability (MDA-MB-453; 3 nM): 106% | normalised viability (MDA-MB-453; 30 nM): 113% | normalised viability (MDA-MB-453; 100 nM): 104% | normalised viability (CAL-85-1; 3 nM): 97.9% | normalised viability (CAL-85-1; 30 nM): 93.7% | normalised viability (CAL-85-1; 100 nM): 109% | normalised viability (MFM-223; 10 nM): 92.4% | normalised viability (MFM-223; 1000 nM): 108% | normalised viability (MFM-223; 10000 nM): 99.6% | normalised viability (DU-4475; 3 nM): 107% | normalised viability (DU-4475; 30 nM): 110% | normalised viability (DU-4475; 100 nM): 110% | normalised viability (CAL-148; 3 nM): 79.8% | normalised viability (CAL-148; 30 nM): 93.5% | normalised viability (CAL-148; 100 nM): 92.2%

Cc1c2oc3c(C)ccc(C(=O)N[C@@H]4C(=O)N[C@H](C(C)C)C(=O)N5CCC[C@H]5C(=O)N(C)CC(=O)N(C)[C@@H](C(C)C)C(=O)O[C@@H]4C)c3nc-2c(C(=O)N[C@@H]2C(=O)N[C@H](C(C)C)C(=O)N3CCC[C@H]3C(=O)N(C)CC(=O)N(C)[C@@H](C(C)C)C(=O)O[C@@H]2C)c(N)c1=O [Dactinomycin]
normalised viability (BT-549; 1 nM): 56.6% | normalised viability (BT-549; 100 nM): 4.94% | normalised viability (BT-549; 1000 nM): 4.47% | normalised viability (MDA-MB-453; 0.3 nM): 85.1% | normalised viability (MDA-MB-453; 3 nM): 42.9% | normalised viability (MDA-MB-453; 10 nM): 40.5% | normalised viability (CAL-85-1; 0.3 nM): 79.1% | normalised viability (CAL-85-1; 3 nM): 43.6% | normalised viability (CAL-85-1; 10 nM): 40.8% | normalised viability (MFM-223; 1 nM): 86.2% | normalised viability (MFM-223; 100 nM): 8.99% | normalised viability (MFM-223; 1000 nM): 10.4% | normalised viability (DU-4475; 0.3 nM): 89.3% | normalised viability (DU-4475; 3 nM): 2.85% | normalised viability (DU-4475; 10 nM): 0.2% | normalised viability (CAL-148; 0.3 nM): 71.8% | normalised viability (CAL-148; 3 nM): 32.4% | normalised viability (CAL-148; 10 nM): 4.61%

CN1CCC(COc2cnc(-c3cccc(Cn4nc(-c5cccc(C#N)c5)ccc4=O)c3)nc2)CC1
normalised viability (BT-549; 10 nM): 98.9% | normalised viability (BT-549; 1000 nM): 90% | normalised viability (BT-549; 10000 nM): 5.83% | normalised viability (MDA-MB-453; 3 nM): 84.5% | normalised viability (MDA-MB-453; 30 nM): 91.2% | normalised viability (MDA-MB-453; 100 nM): 93.8% | normalised viability (CAL-85-1; 3 nM): 110% | normalised viability (CAL-85-1; 30 nM): 96.5% | normalised viability (CAL-85-1; 100 nM): 121% | normalised viability (MFM-223; 10 nM): 108% | normalised viability (MFM-223; 1000 nM): 119% | normalised viability (MFM-223; 10000 nM): 22.5% | normalised viability (DU-4475; 3 nM): 94.1% | normalised viability (DU-4475; 30 nM): 89.7% | normalised viability (DU-4475; 100 nM): 99.2% | normalised viability (CAL-148; 3 nM): 85.8% | normalised viability (CAL-148; 30 nM): 83.2% | normalised viability (CAL-148; 100 nM): 94.2%

CO[C@H]1C[C@@H]2CC[C@@H](C)[C@@](O)(O2)C(=O)C(=O)N2CCCC[C@H]2C(=O)O[C@H]([C@H](C)C[C@@H]2CC[C@@H](OC(=O)C(C)(CO)CO)[C@H](OC)C2)CC(=O)[C@H](C)/C=C(\C)[C@@H](O)[C@@H](OC)C(=O)[C@H](C)C[C@H](C)/C=C/C=C/C=C/1C [Temsirolimus]
normalised viability (BT-549; 1 nM): 56.8% | normalised viability (BT-549; 100 nM): 62.9% | normalised viability (BT-549; 1000 nM): 53.4% | normalised viability (MDA-MB-453; 0.3 nM): 73.5% | normalised viability (MDA-MB-453; 3 nM): 26.1% | normalised viability (MDA-MB-453; 10 nM): 27.1% | normalised viability (CAL-85-1; 0.3 nM): 69.3% | normalised viability (CAL-85-1; 3 nM): 58.9% | normalised viability (CAL-85-1; 10 nM): 60.7% | normalised viability (MFM-223; 1 nM): 58.1% | normalised viability (MFM-223; 100 nM): 50.5% | normalised viability (MFM-223; 1000 nM): 41% | normalised viability (DU-4475; 0.3 nM): 95.3% | normalised viability (DU-4475; 3 nM): 66.6% | normalised viability (DU-4475; 10 nM): 60.2% | normalised viability (CAL-148; 0.3 nM): 74.3% | normalised viability (CAL-148; 3 nM): 45.9% | normalised viability (CAL-148; 10 nM): 39.4%

CN(C)C/C=C/C(=O)Nc1cc2c(Nc3ccc(F)c(Cl)c3)ncnc2cc1O[C@H]1CCOC1 [Afatinib]
normalised viability (BT-549; 10 nM): 87.1% | normalised viability (BT-549; 1000 nM): 92.9% | normalised viability (BT-549; 10000 nM): 11.7% | normalised viability (MDA-MB-453; 3 nM): 104% | normalised viability (MDA-MB-453; 30 nM): 67% | normalised viability (MDA-MB-453; 100 nM): 46.6% | normalised viability (CAL-85-1; 3 nM): 83.2% | normalised viability (CAL-85-1; 30 nM): 57.4% | normalised viability (CAL-85-1; 100 nM): 54.2% | normalised viability (MFM-223; 10 nM): 88.7% | normalised viability (MFM-223; 1000 nM): 83.4% | normalised viability (MFM-223; 10000 nM): 25.1% | normalised viability (DU-4475; 3 nM): 95.1% | normalised viability (DU-4475; 30 nM): 83.2% | normalised viability (DU-4475; 100 nM): 85.8% | normalised viability (CAL-148; 3 nM): 83.2% | normalised viability (CAL-148; 30 nM): 72.9% | normalised viability (CAL-148; 100 nM): 72.5%

COc1cc(Nc2ncc3c(n2)-c2ccc(Cl)cc2C(c2c(F)cccc2OC)=NC3)ccc1C(=O)O [MLN8237]
normalised viability (BT-549; 10 nM): 103% | normalised viability (BT-549; 1000 nM): 62.6% | normalised viability (BT-549; 10000 nM): 32.6% | normalised viability (MDA-MB-453; 3 nM): 91.8% | normalised viability (MDA-MB-453; 30 nM): 50.2% | normalised viability (MDA-MB-453; 100 nM): 44.3% | normalised viability (CAL-85-1; 3 nM): 89% | normalised viability (CAL-85-1; 30 nM): 80.6% | normalised viability (CAL-85-1; 100 nM): 69.4% | normalised viability (MFM-223; 10 nM): 79.3% | normalised viability (MFM-223; 1000 nM): 50.7% | normalised viability (MFM-223; 10000 nM): 30.8% | normalised viability (DU-4475; 3 nM): 98.3% | normalised viability (DU-4475; 30 nM): 82.6% | normalised viability (DU-4475; 100 nM): 37.5% | normalised viability (CAL-148; 3 nM): 86.7% | normalised viability (CAL-148; 30 nM): 89.9% | normalised viability (CAL-148; 100 nM): 78.1%

Clc1ccc(C(c2ccccc2Cl)C(Cl)Cl)cc1 (stereo not given) [Mitotane]
normalised viability (BT-549; 10 nM): 83% | normalised viability (BT-549; 1000 nM): 93% | normalised viability (BT-549; 10000 nM): 102% | normalised viability (MDA-MB-453; 3 nM): 117% | normalised viability (MDA-MB-453; 30 nM): 94.6% | normalised viability (MDA-MB-453; 100 nM): 103% | normalised viability (CAL-85-1; 3 nM): 92.6% | normalised viability (CAL-85-1; 30 nM): 86.2% | normalised viability (CAL-85-1; 100 nM): 101% | normalised viability (MFM-223; 10 nM): 90.3% | normalised viability (MFM-223; 1000 nM): 96% | normalised viability (MFM-223; 10000 nM): 87.9% | normalised viability (DU-4475; 3 nM): 109% | normalised viability (DU-4475; 30 nM): 87.5% | normalised viability (DU-4475; 100 nM): 93.9% | normalised viability (CAL-148; 3 nM): 89.2% | normalised viability (CAL-148; 30 nM): 94.2% | normalised viability (CAL-148; 100 nM): 95.7%

C=CCNC1=C2C[C@@H](C)C[C@H](OC)[C@H](O)[C@@H](C)/C=C(\C)[C@H](OC(N)=O)[C@@H](OC)/C=C\C=C(/C)C(=O)NC(=CC1=O)C2=O [Tanespimycin]
normalised viability (BT-549; 10 nM): 81.5% | normalised viability (BT-549; 1000 nM): 31% | normalised viability (BT-549; 10000 nM): 20.4% | normalised viability (MDA-MB-453; 3 nM): 121% | normalised viability (MDA-MB-453; 30 nM): 11.4% | normalised viability (MDA-MB-453; 100 nM): 7.8% | normalised viability (CAL-85-1; 3 nM): 91.5% | normalised viability (CAL-85-1; 30 nM): 86.5% | normalised viability (CAL-85-1; 100 nM): 82.4% | normalised viability (MFM-223; 10 nM): 73.6% | normalised viability (MFM-223; 1000 nM): 23.9% | normalised viability (MFM-223; 10000 nM): 17.6% | normalised viability (DU-4475; 3 nM): 104% | normalised viability (DU-4475; 30 nM): 83.3% | normalised viability (DU-4475; 100 nM): 2.97% | normalised viability (CAL-148; 3 nM): 97.8% | normalised viability (CAL-148; 30 nM): 89.7% | normalised viability (CAL-148; 100 nM): 38.5%

COc1cccc2cc(-c3nc([C@H]4CC[C@H](C(=O)O)CC4)n4ncnc(N)c34)[nH]c12 [OSI-027]
normalised viability (BT-549; 10 nM): 98.9% | normalised viability (BT-549; 1000 nM): 76% | normalised viability (BT-549; 10000 nM): 16.1% | normalised viability (MDA-MB-453; 3 nM): 79% | normalised viability (MDA-MB-453; 30 nM): 88.2% | normalised viability (MDA-MB-453; 100 nM): 71.6% | normalised viability (CAL-85-1; 3 nM): 95.4% | normalised viability (CAL-85-1; 30 nM): 83.2% | normalised viability (CAL-85-1; 100 nM): 100% | normalised viability (MFM-223; 10 nM): 101% | normalised viability (MFM-223; 1000 nM): 34.9% | normalised viability (MFM-223; 10000 nM): 16% | normalised viability (DU-4475; 3 nM): 96.6% | normalised viability (DU-4475; 30 nM): 92.5% | normalised viability (DU-4475; 100 nM): 82.5% | normalised viability (CAL-148; 3 nM): 86.7% | normalised viability (CAL-148; 30 nM): 87.5% | normalised viability (CAL-148; 100 nM): 82.2%

COc1cccc2c1C(=O)c1c(O)c3c(c(O)c1C2=O)C[C@@](O)(C(=O)CO)C[C@@H]3O[C@H]1C[C@H](N)[C@H](O)[C@H](C)O1 [Doxorubicin]
normalised viability (BT-549; 1 nM): 114% | normalised viability (BT-549; 100 nM): 76.5% | normalised viability (BT-549; 1000 nM): 5.36% | normalised viability (MDA-MB-453; 0.3 nM): 105% | normalised viability (MDA-MB-453; 3 nM): 102% | normalised viability (MDA-MB-453; 10 nM): 101% | normalised viability (CAL-85-1; 0.3 nM): 90% | normalised viability (CAL-85-1; 3 nM): 92.3% | normalised viability (CAL-85-1; 10 nM): 90.4% | normalised viability (MFM-223; 1 nM): 91.8% | normalised viability (MFM-223; 100 nM): 98% | normalised viability (MFM-223; 1000 nM): 21.4% | normalised viability (DU-4475; 0.3 nM): 93.8% | normalised viability (DU-4475; 3 nM): 91.6% | normalised viability (DU-4475; 10 nM): 64% | normalised viability (CAL-148; 0.3 nM): 86.5% | normalised viability (CAL-148; 3 nM): 93% | normalised viability (CAL-148; 10 nM): 73.6%
